Measured values: paper PMC7785020, “A unique hormonal recognition feature of the human glucagon-like peptide-2 receptor” (Cell Research, 2020)
Where a chain is given by its changes, count along the chain named. Read-outs that look alike come from different tables or passages of the source. No end group written: not given here.

Legend:
Type in all cases: cell-based
[1] = biological target: T1, GLP-2R N247^ECL1A (Homo sapiens, UniProt O95838, N247A); assay: cAMP accumulation, N247^ECL1A; parameters: WT (1–553); expressed in transfected cells; HEK 293T (cAMP); conditions: Table S5, N247A, HEK 293T, 30 min, RT, mean ± SEM, n ≥ 3 in duplicate; for Emax: read-out: cAMP Emax (% WT); for EC50: read-out: cAMP pEC50 (converted)
T1 sequence (O95838 1-553 N247A): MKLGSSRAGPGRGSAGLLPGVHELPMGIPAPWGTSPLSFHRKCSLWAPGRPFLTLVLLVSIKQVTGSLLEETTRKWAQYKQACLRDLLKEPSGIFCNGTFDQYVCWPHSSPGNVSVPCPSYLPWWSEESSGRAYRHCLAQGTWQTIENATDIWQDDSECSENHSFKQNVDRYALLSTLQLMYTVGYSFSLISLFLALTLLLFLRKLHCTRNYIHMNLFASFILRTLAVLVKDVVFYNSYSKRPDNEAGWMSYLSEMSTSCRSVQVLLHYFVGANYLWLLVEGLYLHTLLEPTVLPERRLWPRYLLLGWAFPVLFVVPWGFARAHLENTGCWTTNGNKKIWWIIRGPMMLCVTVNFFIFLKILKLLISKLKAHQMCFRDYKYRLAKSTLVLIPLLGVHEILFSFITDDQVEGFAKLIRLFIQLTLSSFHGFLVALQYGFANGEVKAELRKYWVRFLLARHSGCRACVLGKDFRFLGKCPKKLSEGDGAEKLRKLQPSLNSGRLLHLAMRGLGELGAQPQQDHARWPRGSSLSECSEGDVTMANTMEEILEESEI
Description: (§1) HEK 293T cells were cultured in Dulbecco’s Modified Eagle’s Medium (DMEM) (Gibco, Waltham, USA) supplemented with 10% (v/v) fetal bovine serum (FBS) (Gibco) and 1% (v/v) sodium pyruvate (Gibco) at 37 °C, 5% CO2 in a humidified incubator. They were seeded onto 6-well cell culture plates and transiently transfected with different GLP-2R constructs using Lipofectamine 2000 transfection reagent (Invitrogen, Carlsbad, CA, USA). After 24 h, the transfected cells were seeded onto 384-well microtiter plates (3000 cells per well) in HBSS supplemented with 5 mM HEPES, 0.1% (w/v) bovine serum albumin (BSA) and 0.5 mM 3-isobutyl-1- methylxanthine, and stimulated with increasing concentrations of GLP-2 for 30 min at RT. Eu and Ulight were diluted by cAMP detection buffer and added to the plates separately to terminate the reaction. Plates were incubated at RT for 60 min before measuring the fluorescence intensity at 620 nm and […] by an EnVision multilabel plate reader (PerkinElmer, Boston, USA).

[2] = biological target: T2, GLP-2R R242^ECL1E (Homo sapiens, UniProt O95838, R242E); assay: cAMP accumulation, R242^ECL1E; parameters: WT (1–553); expressed in transfected cells; HEK 293T (cAMP); conditions: HEK 293T, 30 min, RT, mean ± SEM, n ≥ 3 in duplicate; for Emax: HEK-293T, read-out: cAMP Emax (% WT); for EC50: read-out: cAMP pEC50 (converted)
T2 sequence (O95838 1-553 R242E): T1 sequence (O95838 1-553 N247A) with R242E, A247N
Description: as §1, with “They” for “HEK 293T cells were cultured in Dulbecco’s Modified Eagle’s Medium (DMEM) (Gibco, Waltham, USA) supplemented with 10% (v/v) fetal bovine serum (FBS) (Gibco) and 1% (v/v) sodium pyruvate (Gibco) at 37 °C, 5% CO2 in a humidified incubator. They”

[3] = biological target: T3, GLP-2R (1-553) (WT) (Homo sapiens, UniProt O95838); assay: cAMP accumulation, WT GLP-2R; conditions: 30 min, RT, mean ± SEM, n ≥ 3 in duplicate; for Emax: HEK-293T; for EC50: HEK 293T, read-out: cAMP pEC50 (converted)
T3 construct: GLP-2R (1-553) (WT); expressed in transfected cells; host or cells: HEK 293T
T3 sequence (O95838 1-553): T1 sequence (O95838 1-553 N247A) with A247N
Description: as §1

Emax [1] [%]	Emax ([2]; Table S5, R242E) [%]	Emax ([3]; Table S5, GLP-2R (WT)) [%]	EC50 [1] [nM]	EC50 ([2]; Table S5, R242E) [nM]	EC50 ([3]; Table S5, GLP-2R (WT)) [nM]	Compound	Emax ([2]; Table S3, R242E) [%]	Emax ([3]; Table S3, WT) [%]	Emax ([3]; Table S4, WT) [%]
103 ± 1.8	103 ± 3.5	104 ± 1.5	0.0501	5.01	0.126	HADGSFSDEMNTILDNLAAKEFIAWLVKGRG [Chimeric GLP-1/GLP-2 (20-33)]			
102 ± 2.8	108 ± 5.5	103 ± 2.6	1.26	39.8	3.16	HADGSFTSDVSSYLEGQAARDFINWLIQTKITD [Chimeric GLP-1/GLP-2 (7-19)]			
102 ± 1.8	108 ± 3.2	103 ± 1.8	0.0398	25.1	0.158	HAEGTFSDEMNTILDNLAARDFINWLIQTKITD [Chimeric GLP-1/GLP-2 (1-6)]			

Compound	Emax [1] [%]	Emax ([2]; Table S5, R242E) [%]	Emax ([3]; Table S5, GLP-2R (WT)) [%]	EC50 [1] [nM]	EC50 ([2]; Table S5, R242E) [nM]	EC50 ([3]; Table S5, GLP-2R (WT)) [nM]	Emax ([2]; Table S3, R242E) [%]	Emax ([3]; Table S3, WT) [%]	Emax ([3]; Table S4, WT) [%]
CC[C@H](C)[C@H](NC(=O)[C@H](Cc1ccccc1)NC(=O)[C@H](CC(=O)O)NC(=O)[C@H](CCCNC(=N)N)NC(=O)[C@H](C)NC(=O)[C@H](C)NC(=O)[C@H](CC(C)C)NC(=O)[C@H](CC(N)=O)NC(=O)[C@H](CC(=O)O)NC(=O)[C@H](CC(C)C)NC(=O)[C@@H](NC(=O)[C@@H](NC(=O)[C@H](CC(N)=O)NC(=O)[C@H](CCSC)NC(=O)[C@H](CCC(=O)O)NC(=O)[C@H](CC(=O)O)NC(=O)[C@H](CO)NC(=O)[C@H](Cc1ccccc1)NC(=O)[C@H](CO)NC(=O)CNC(=O)[C@H](CC(=O)O)NC(=O)[C@H](C)NC(=O)[C@@H](N)Cc1c[nH]cn1)[C@@H](C)O)[C@@H](C)CC)C(=O)N[C@@H](CC(N)=O)C(=O)N[C@@H](Cc1c[nH]c2ccccc12)C(=O)N[C@@H](CC(C)C)C(=O)N[C@H](C(=O)N[C@@H](CCC(N)=O)C(=O)N[C@H](C(=O)N[C@@H](CCCCN)C(=O)N[C@H](C(=O)N[C@H](C(=O)N[C@@H](CC(=O)O)C(=O)O)[C@@H](C)O)[C@@H](C)CC)[C@@H](C)O)[C@@H](C)CC [Human GLP-2 (1–33)]	103 ± 1.8	103 ± 2.3	103 ± 1.6				108 ± 1.9	101 ± 2.4	101 ± 2.9
